Measurements published in PMC5607274, “An iterative compound screening contest method for identifying target protein inhibitors using the tyrosine-protein kinase Yes” (Scientific Reports, 2017).

Target: T1, human recombinant Yes [a.a. 2–543 (end)] (Homo sapiens, UniProt P07947)
T1 construct: human recombinant Yes [a.a; 2–543 (end)]; purchased BPS Bioscience 40488
Experiment: ADP-Glo kinase assay, inhibition rates of Yes phosphorylation activity (first and second screening)
Assay type: biochemical
Settings: 10 μmol L−1 compound; for First screening IR (inhibition rate): mean of n = 4 wells
Procedure, shortened: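 Hits from a first pass were rescreened after re-dissolution from fresh powder. The first pass reported the mean inhibition rate of quadruplicate wells per compound. Activity was that of recombinant human Yes [a.a. 2–543] kinase, read out with the ADP-Glo ADP-detection method.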

T1 sequence (P07947 2-543): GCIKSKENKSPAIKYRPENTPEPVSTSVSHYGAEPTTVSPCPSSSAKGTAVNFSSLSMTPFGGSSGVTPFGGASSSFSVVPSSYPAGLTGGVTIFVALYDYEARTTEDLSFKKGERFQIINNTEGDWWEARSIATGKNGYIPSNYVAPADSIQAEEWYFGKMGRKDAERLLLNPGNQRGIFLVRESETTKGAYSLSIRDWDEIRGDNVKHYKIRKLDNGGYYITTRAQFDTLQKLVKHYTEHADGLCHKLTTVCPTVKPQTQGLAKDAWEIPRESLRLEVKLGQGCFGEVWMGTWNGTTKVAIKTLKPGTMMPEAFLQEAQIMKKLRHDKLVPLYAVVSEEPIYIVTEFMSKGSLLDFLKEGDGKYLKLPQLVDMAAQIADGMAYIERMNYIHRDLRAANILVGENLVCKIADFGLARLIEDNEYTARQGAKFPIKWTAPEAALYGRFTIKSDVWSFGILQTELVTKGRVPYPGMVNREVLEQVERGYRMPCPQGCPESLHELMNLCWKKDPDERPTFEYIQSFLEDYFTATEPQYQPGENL

Row | SMILES | First screening IR (inhibition rate) [%] | Second screening IR (inhibition rate) (second screening, dissolved from fresh powder, n = 4) [%]
1 | CCN(c1cccnc1)S(=O)(=O)c1cc(S(C)(=O)=O)ccc1Cl [Compound Z1082836308] | -7 | –
2 | CCNC(=O)c1ccc(NC(C)C(O)c2ccc(F)cc2)nc1 (stereo not shown) [Compound Z1798329942] | 35 | –
3 | CC(=O)c1c[nH]c(C(=O)NCCc2ccc(-c3csc(C)n3)s2)c1 [Compound Z165050208] | 3 | –
4 | CC1CCN(Cc2ncc(-c3cccc(Cl)c3)o2)CC1n1ccnc1 (stereo not shown) [Compound Z1492998619] | 33 | –
5 | Brc1ccc2nc(CNCc3cnc(-c4ccccc4)nc3)cn2c1 [Compound Z736057568] | 4 | –
6 | CN1CCN(C(=O)c2ccc(-c3cc(F)c(F)c(F)c3)cc2)C(CN)C1.Cl (stereo not shown) [Compound Z1457890473] | 13 | –
7 | CC1=CC(=C(C#N)c2nc3ccccc3s2)C=C(C)N1c1ccc2c(c1)OCCO2 [Compound Z223450274] | -6 | –
8 | N#Cc1ccsc1NC(=O)CCCSc1nc2ccccc2[nH]1 [Compound Z29082077] | 16 | –
9 | CN1C/C(=C/c2ccc(SC(F)(F)F)cc2)c2nc3ccccc3c(C(=O)O)c2C1 [Compound Z196352976] | -14 | –
10 | O=C(OCc1ccc(-n2ccnc2)nc1)c1ccc([N+](=O)[O-])cc1 [Compound Z1352068858] | 7 | –
11 | Cc1nc(CN)ccc1C(=O)Nc1ccc(Oc2ccc(Cl)cc2Cl)c(F)c1.Cl [Compound Z1561183584] | -5 | –
12 | N#Cc1ccc(-c2cc(-c3ccc(Cl)cc3)c3ccccc3n2)cc1 [Compound Z415722774] | 6 | –
13 | COc1ccccc1-c1cc(-c2ccccc2)c2ccccc2n1.Cl [Compound Z48951051] | 3 | –
14 | Cc1ccc(-c2cc(-c3ccccc3)c3ccccc3n2)cc1.Cl [Compound Z48951039] | 11 | –
15 | N#C/C(=C(/O)COC(=O)c1cc(F)c(F)cc1Cl)c1nc2ccccc2[nH]1 [Compound Z18771813] | 8 | –
16 | CCCCS(=O)(=O)C1CCS(=O)(=O)C1 (stereo not shown) [Compound Z56757812] | -9 | –

Row | SMILES | First screening IR (inhibition rate) [%] | Second screening IR (inhibition rate) (second screening, dissolved from fresh powder, n = 4) [%]
17 | O=C(Nc1ccc(C2(c3ccc(NC(=O)c4ccc(N5CCCCCC5)c([N+](=O)[O-])c4)cc3)CCCCC2)cc1)c1ccc(N2CCCCCC2)c([N+](=O)[O-])c1 [Compound Z56818449] | -7 | –
18 | O=C(Nc1cccc(C#Cc2cccs2)c1)C1CC2CCCC(C1)C2=O (stereo not shown) [Compound Z271080962] | -2 | –
19 | CN(C)c1nc(N)nc(CSCc2nc3ccccc3s2)n1 [Compound Z232651876] | -13 | –
20 | Cc1noc(C)c1CC(=O)NN=C(c1ccccc1)c1ccccc1 [Compound Z79575803] | -9 | –
21 | CS(=O)(=O)c1ccc(S(=O)(=O)Cl)cc1 [Compound Z248485700] | 73 | -3
22 | CNc1snc(C)c1C(=O)N1CCC(Oc2ccc(Cl)c(Cl)c2)C1 (stereo not shown) [Compound Z1417711005] | -7 | –
23 | CC(Sc1nnc2ccccn12)C(=O)Nc1nc(-c2ccc(Cl)c(Cl)c2)cs1 (stereo not shown) [Compound Z20241270] | 4 | –
24 | CC(OC(=O)c1ccc(-c2ccc(O)cc2)cc1)C(=O)c1ccc(F)c(F)c1 (stereo not shown) [Compound Z54379277] | 27 | –
25 | CN(C)C(CNC(=O)c1cc(-c2ccccc2)nc2c1cnn2Cc1ccncc1)c1ccccc1 (stereo not shown) [Compound Z116834630] | -16 | –
26 | O=C(O)c1cnc(/C=C/c2cccnc2)s1 [Compound Z1021595256] | 0 | –
27 | Cn1ccnc1C(O)(CC(=O)Nc1ccc(Oc2ncccn2)cc1)C(F)(F)F (stereo not shown) [Compound Z757638538] | -7 | –
28 | O=C(NCCOc1ccc(Cl)cc1)c1ccc2nc[nH]c2c1 [Compound Z73381327] | 12 | –
29 | O=C(NCc1ccco1)c1cc(-c2cccnc2)nc2c1cnn2Cc1ccccc1Cl [Compound Z234860216] | 19 | –
30 | CCc1ccc(S(=O)(=O)N(C)C2CCS(=O)(=O)C2)cc1 (stereo not shown) [Compound Z89320983] | 10 | –
31 | Cc1cc(SC(C)C(=O)Nc2ccc3[nH]c(=O)[nH]c3c2)nc2ccccc12 (stereo not shown) [Compound Z112518822] | -20 | –
32 | COc1ccc(-n2cc(-c3ccccc3)c3c(NCCOCCO)ncnc32)cc1 [Compound Z57456127] | -8 | –

More lines, now with the values ahead:

Row | First screening IR (inhibition rate) [%] | Second screening IR (inhibition rate) (second screening, dissolved from fresh powder, n = 4) [%] | SMILES
33 | 5 | – | C=CCNc1nc(C(=O)OCCCn2c(=O)[nH]c3ccccc32)cs1 [Compound Z17965676]
34 | 0 | – | Cc1cc(C)c2c(c1)C(O)(CC(=O)c1ccccc1)C(=O)N2 (stereo not shown) [Compound Z1013750782]
35 | 29 | – | CCCCn1nc(C)c(C(=O)N2CCC(C)(CN3CCN(C)CC3)CC2)c1Cl [Compound Z1667221615]
36 | 8 | – | CC(C)(CNC(=O)c1cccc(N2CC(O)=C(c3nc4ccccc4s3)C2=N)c1)N1CCOCC1 [Compound Z32220177]
37 | -9 | – | CCn1c(CNc2ccc3c(C)cc(=O)oc3c2)nc2cc(S(=O)(=O)N3CCCCC3)ccc21 [Compound Z139671368]
38 | -5 | – | CC(C)n1ncc2c(C(=O)N3CCN(CC(=O)N4CCCCC4)CC3)cc(-c3ccccc3)nc21 [Compound Z147118228]
39 | -1 | – | Cc1cc(/C(O)=C2\C(=O)C(=O)N(CCN3CCOCC3)C2c2ccc(F)cc2)ccc1OCC(C)C (stereo not shown) [Compound Z56865693]
40 | -3 | – | CC(=O)c1cccc(COC(=O)c2n[nH]c3c2CCCC3)c1 [Compound Z1515387931]
41 | -5 | – | O=C(CCc1cnn(-c2ccccc2)c1)Nc1nc2c(s1)CCCC2 [Compound Z131246512]
42 | 11 | – | CNc1ccc(/C=C2/CC(C)Cc3c2nc2ccccc2c3C(=O)O)cc1[N+](=O)[O-] (stereo not shown) [Compound Z46108034]
43 | -20 | – | O=C(CS(=O)(=O)CCCc1ccccc1)Nc1ccc(-n2ccnc2)nc1 [Compound Z407006622]
44 | 45 | – | Clc1ccccc1Cn1ncc2c(N3CCCC3)ncnc21 [Compound Z1172235419]
45 | 44 | – | Cc1ccccc1-n1c(=O)c2ccccc2n2c(=S)n(CN3CCN(CCC(C)C)CC3)nc12 [Compound Z431773138]
46 | 1 | – | CCCCn1c(CN2CCN(C(=O)C3CCCO3)CC2)nc2c1c(=O)[nH]c(=O)n2Cc1ccccc1 (stereo not shown) [Compound Z105965792]
47 | -6 | – | CCc1nnc2n1CCN(CC(=O)NC1CCCc3ccccc31)C2 (stereo not shown) [Compound Z1139436344]
48 | -43 | – | CCn1ncc2c(C(=O)O)cc(-c3ccccc3)nc21 [Compound Z56648330]
49 | -11 | – | CC(CNC(=O)c1ncncc1Br)CN1CCN(C)CC1 (stereo not shown) [Compound Z1936607769]
50 | 1 | – | COC(=O)c1cc(CSc2n[nH]c(-c3ccccc3)n2)oc1C [Compound Z25398505]
51 | 0 | – | CC(Sc1nnc(-c2c[nH]c3ccccc23)n1CC1CCCO1)C(=O)Nc1ccc(N(C)C)cc1 (stereo not shown) [Compound Z18647898]
